c1ccc(-c2cc3ccccc3[nH]2)cc1
Settings | solubility (mole fraction)
in 1,2-dichloroethane, 296.95 K | 0.0186
in 1,2-dichloroethane, 302.45 K | 0.0236
in 1,2-dichloroethane, 308.55 K | 0.0285
in 1,2-dichloroethane, 313.15 K | 0.0325
in 1,2-dichloroethane, 318.25 K | 0.0373
in 1,2-dichloroethane, 323.25 K | 0.0422
in 1,2-dichloroethane, 329.05 K | 0.0498
in 1,2-dichloroethane, 334.05 K | 0.0575
in 1,2-dichloroethane, 338.55 K | 0.0666
in 1,4-dioxane, 289.05 K | 0.0403
in 1,4-dioxane, 293.15 K | 0.0507
in 1,4-dioxane, 299.15 K | 0.0625
in 1,4-dioxane, 303.95 K | 0.0735
in 1,4-dioxane, 308.95 K | 0.0903
in 1,4-dioxane, 313.65 K | 0.114
in 1,4-dioxane, 318.65 K | 0.145
in 1,4-dioxane, 324.05 K | 0.172
in 1,4-dioxane, 329.35 K | 0.201
in 1,4-dioxane, 334.15 K | 0.239
in MTBE, 289.05 K | 0.0337
in MTBE, 293.15 K | 0.0351
in MTBE, 299.15 K | 0.0383
in MTBE, 303.95 K | 0.0406
in MTBE, 308.95 K | 0.0428
in MTBE, 313.65 K | 0.0452
in MTBE, 318.65 K | 0.049
in MTBE, 324.05 K | 0.0522
in MTBE, 329.35 K | 0.0558
in MTBE, 334.15 K | 0.0596
in THF, 289.05 K | 0.187
in THF, 293.15 K | 0.194
in THF, 299.15 K | 0.203
in THF, 303.95 K | 0.211
in THF, 308.95 K | 0.218
in THF, 313.65 K | 0.225
in THF, 318.65 K | 0.232
in THF, 324.05 K | 0.24
in THF, 329.35 K | 0.248
in THF, 334.15 K | 0.256
in acetone, 289.05 K | 0.0951
in acetone, 293.15 K | 0.106
in acetone, 299.15 K | 0.111
in acetone, 303.95 K | 0.122
in acetone, 308.95 K | 0.132
in acetone, 313.65 K | 0.142
in acetone, 318.65 K | 0.15
in acetone, 324.05 K | 0.16
in acetone, 329.35 K | 0.172
in acetonitrile, 289.05 K | 0.0144
in acetonitrile, 293.15 K | 0.0164
in acetonitrile, 299.15 K | 0.02
in acetonitrile, 303.95 K | 0.0237
in acetonitrile, 308.95 K | 0.0283
in acetonitrile, 313.65 K | 0.0328
in acetonitrile, 318.65 K | 0.038
in acetonitrile, 324.05 K | 0.0446
in acetonitrile, 329.35 K | 0.0533
in acetonitrile, 334.15 K | 0.0604
in ethanol, 296.95 K | 0.0109
in ethanol, 302.45 K | 0.012
in ethanol, 308.55 K | 0.014
in ethanol, 313.15 K | 0.0154
in ethanol, 318.25 K | 0.0173
in ethanol, 323.25 K | 0.0187
in ethanol, 329.05 K | 0.0217
in ethanol, 334.05 K | 0.0249
in ethanol, 338.55 K | 0.0274
in ethyl acetate, 289.05 K | 0.0634
in ethyl acetate, 293.15 K | 0.0694
in ethyl acetate, 299.15 K | 0.0761
in ethyl acetate, 303.95 K | 0.0814
in ethyl acetate, 308.95 K | 0.0879
in ethyl acetate, 313.65 K | 0.0951
in ethyl acetate, 318.65 K | 0.101
in ethyl acetate, 324.05 K | 0.11
in ethyl acetate, 329.35 K | 0.119
in ethyl acetate, 334.15 K | 0.128
in isopropanol, 296.95 K | 0.00786
in isopropanol, 302.45 K | 0.00963
in isopropanol, 308.55 K | 0.0115
in isopropanol, 313.15 K | 0.0125
in isopropanol, 318.25 K | 0.0148
in isopropanol, 323.25 K | 0.0168
in isopropanol, 329.05 K | 0.0185
in isopropanol, 334.05 K | 0.0218
in isopropanol, 338.55 K | 0.0233
in methanol, 296.95 K | 0.00571
in methanol, 302.45 K | 0.00709
in methanol, 308.55 K | 0.00835
in methanol, 313.15 K | 0.00941
in methanol, 318.25 K | 0.0107
in methanol, 323.25 K | 0.0119
in methanol, 329.05 K | 0.0136
in methanol, 334.05 K | 0.016
in methanol, 338.55 K | 0.017
in n-butanol, 296.95 K | 0.0123
in n-butanol, 302.45 K | 0.0141
in n-butanol, 308.55 K | 0.0163
in n-butanol, 313.15 K | 0.0181
in n-butanol, 318.25 K | 0.0212
in n-butanol, 323.25 K | 0.0241
in n-butanol, 329.05 K | 0.0276
in n-butanol, 334.05 K | 0.0311
in n-butanol, 338.55 K | 0.0357
in n-propanol, 296.95 K | 0.0104
in n-propanol, 302.45 K | 0.012
in n-propanol, 308.55 K | 0.0134
in n-propanol, 313.15 K | 0.0156
in n-propanol, 318.25 K | 0.0177
in n-propanol, 323.25 K | 0.0206
in n-propanol, 329.05 K | 0.0233
in n-propanol, 334.05 K | 0.0269
in n-propanol, 338.55 K | 0.03
in sec-butanol, 296.95 K | 0.00879
in sec-butanol, 302.45 K | 0.0111
in sec-butanol, 308.55 K | 0.014
in sec-butanol, 313.15 K | 0.0157
in sec-butanol, 318.25 K | 0.0182
in sec-butanol, 323.25 K | 0.022
in sec-butanol, 329.05 K | 0.0271
in sec-butanol, 334.05 K | 0.0307
in sec-butanol, 338.55 K | 0.0353
in toluene, 289.05 K | 0.00911
in toluene, 293.15 K | 0.0101
in toluene, 299.15 K | 0.0122
in toluene, 303.95 K | 0.0141
in toluene, 308.95 K | 0.0167
in toluene, 313.65 K | 0.0191
in toluene, 318.65 K | 0.0222
in toluene, 324.05 K | 0.0255
in toluene, 329.35 K | 0.0298
in toluene, 334.15 K | 0.0342

— BigSolDB 2.1
